What was measured:
[1] = biological target: T1, α face pockets of the 20S core proteasome (Homo sapiens, UniProt P25787+P60900); assay: Competition of TAT peptides with Rpt C-terminal tail peptides for α face pockets (ChT-L activity of 20S); format: biochemical
T1 construct: purified from erythrocytes; purchased Boston Biochem, Inc. or Enzo Life Sciences, Inc; host or cells: human erythrocytes
Excerpt: As mentioned herein, the binding pockets on the α face accept “anchors” from natural protein ligands of the 20S core. […] The 10-residue Rpt-derived C-terminal “tail” peptides (“Rpt peptides”) can be used as competitors with the Rpt subunits or with small allosteric ligands. Importantly, the Rpt peptides interject between the subunits with their C-termini, whereas TAT peptides, according to the modeling, use their N-termini for this purpose. To test the specificity of interactions between TAT compounds and the α face, competition experiments were performed. The 20S core was challenged with selected TAT compounds after treatment with Rpt peptides. Peptides of Rpt2 ([…]; SEQ ID NO: 10), Rpt3 ([…]; SEQ ID NO: 11), Rpt5 ([…]; SEQ ID NO: 12) and Rpt6 ([…]; SEQ ID NO: 13) subunits were selected, docking in α3/α4, α1/α2, α5/α6 and α2/α3 pockets, respectively. Tails of Rpt2, 3, and 5 display the canonical HbYX motif, whereas the LeuTrpLys C-terminus of Rpt6 may be considered “pseudo-HbYX”, with a bulky Trp replacing Tyr. Results of the competition experiments are presented as radar plots in FIG. 15. […] This pocket also emerged as the major binding site for (1) and (8). However, these compounds likely weakly competed with the Rpt2 tail for binding to the α3/α4 pocket as well. The α3/α4 pocket seemed to be favored by (6). […] These complex patterns point at the importance of allosteric effects between the α face ligands, the gate and the catalytic chamber.
Determination of Proteasome Activity. Human housekeeping core (20S) proteasome purified from erythrocytes was purchased from Boston Biochem, Inc. (Cambridge, Mass.) or from Enzo Life Sciences, Inc. (Farmingdale, N.Y.). Multiple batches of the proteasomes were used and performed reproducibly. The stock proteasome was diluted to 0.2 mg/mL working solution in “dilution buffer” (50 mM Tris/HCl, pH 8, 20% glycerol). The following model peptide substrates, releasing fluorescent 7-amino-4-methylcoumarin (AMC) reporter group after cleavage, were used: succinyl-LeuLeuValTyr-AMC (SEQ ID NO: 14) (for the ChT-L peptidase; SucLLVY-AMC; Bachem Bioscience Inc., Philadelphia, Pa.), butoxycarbonyl-LeuArgArg-AMC (T-L; Bachem Bioscience Inc., Philadelphia, Pa.) and carbobenzoxy-LeuLeuGlu-AMC (PGPH; Enzo Life Sciences Inc., Farmingdale, N.Y.). The substrates were used at concentration of 50 μM (ChT-L) or 100 μM (T-L, PGPH). Free AMC (Sigma-Aldrich, St. Louis, Mo.) was used as the standard. The C-terminal peptides derived from Rpt2, Rpt3, Rpt5 and Rpt6 were synthesized (standard solid-phase peptide chemistry) and purified to at least 98% purity by GenScript (Piscataway, N.J.). The TAT peptides, Rpt peptides (except Rpt6) and the peptide substrates were dissolved in anhydrous dimethylsulfoxide (DMSO; Sigma-Aldrich, St. Louis, Mo.) and such stock solutions were stored at −20° C. The total concentration of DMSO in final reaction mixtures never exceeded 3% (vol/vol). The Trp (tryptophan)-containing Rpt6 peptide was dissolved in ultrapure water and stored at −20° C., protected from light. The reaction was carried out in 96-well plates, in 100 μL of reaction mixture that consisted of 45 mM Tris/HCl, pH 8, 100 mM KCl, 1 mM EDTA (reaction buffer) and a fluorogenic peptide substrate, to which 200 ng (nearly […]) of proteasome were added. The addition of KCl/EDTA (ethylenediaminetetraacetic acid) to reaction buffer assured latency of the core proteasome. The proteasome was preincubated with a substrate for 10 min at room temperature, then 1 μL of DMSO or a desired concentration of a TAT peptide in 1 μL of DMSO were added. After mixing, the plate was transferred to a Fluoroskan Ascent plate reader (Thermo Fisher Scientific Inc., Waltham, Mass.) for 1 h (37° C.), with fluorescence readouts once per minute. To test the competition with Rpt derived peptides, the Rpt peptide (1 μM) was added before the TAT peptide to the reaction mixture. […]

20S proteasome = 20S proteasome (Homo sapiens, UniProt P25787+P60900); details: cited from earlier work
[2] = biological target: T2, proteasome ChT-L activity in SK-N-SH (ATCC HTB-11) cells (Homo sapiens, UniProt P25787+P60900); assay: ChT-L proteasome activity in lysates of SK-N-SH cells treated with TAT peptides; format: cell-based; details: 1 μM, 24 h
T2 construct: host or cells: SK-N-SH human neuroblastoma cells
Procedure: (§1) Cell Culture. Human SK-N-SH neuroblastoma cell line (ATCC® HTB-11™ American Type Culture Collection; Manassas, Va.) were cultured according to ATCC specifications (EMEM, 10% heat-inactivated FBS) The cells at passage 2-4 were treated with 1 μM TAT peptides or the DMSO vehicle diluted with the medium 1: 1000, for 24 h. The content of live cells was determined by the Trypan Blue-exclusion assay. The cells were harvested, washed twice in PBS, resuspended in dilution buffer (as described herein) and stored in −80° C. To prepare lysates, the thawed preparations were vortexed with glass beads and centrifuged for 5 min 5,000×g (4° C.). The supernatant was centrifuged for 20 min 14,000×g (4° C.). The resulting supernatant—“crude lysate” was diluted to 1 mg/mL of total protein with dilution buffer. 1 μg of lysate per assay (reaction buffer: 50 mM Tris/HCl pH 8, 0.1 mM MgCl2, 0.2 mM ATP, 0.1 mM dithiothreitol, 50 μM Suc-LLVY-AMC (SEQ ID NO: 14)) was used for determination of ChT-L activity in a 96-well format, as above.

[3] = biological target: proteasome in SK-N-SH cell lysates (Homo sapiens, UniProt P28074); assay: ChT-L activity of SK-N-SH cell lysates exposed to Bortezomib; format: biochemical; details: 1 μM
Procedure: as §1

[4] = biological target: T3, latent human 20S proteasome (Homo sapiens, UniProt P25787+P60900); assay: Chymotrypsin-like (ChT-L) activity of purified latent human 20S proteasome, Suc-LLVY-AMC substrate; format: biochemical
T3 construct: purified from erythrocytes; purchased Boston Biochem, Inc. or Enzo Life Sciences, Inc; host or cells: human erythrocytes
Procedure: Determination of Proteasome Activity. Human housekeeping core (20S) proteasome purified from erythrocytes was purchased from Boston Biochem, Inc. (Cambridge, Mass.) or from Enzo Life Sciences, Inc. (Farmingdale, N.Y.). […] The stock proteasome was diluted to 0.2 mg/mL working solution in “dilution buffer” (50 mM Tris/HCl, pH 8, 20% glycerol). The following model peptide substrates, releasing fluorescent 7-amino-4-methylcoumarin (AMC) reporter group after cleavage, were used: succinyl-LeuLeuValTyr-AMC (SEQ ID NO: 14) (for the ChT-L peptidase; SucLLVY-AMC; Bachem Bioscience Inc., Philadelphia, Pa.), butoxycarbonyl-LeuArgArg-AMC (T-L; Bachem Bioscience Inc., Philadelphia, Pa.) and carbobenzoxy-LeuLeuGlu-AMC (PGPH; Enzo Life Sciences Inc., Farmingdale, N.Y.). The substrates were used at concentration of 50 μM (ChT-L) or 100 μM (T-L, PGPH). Free AMC (Sigma-Aldrich, St. Louis, Mo.) was used as the standard. […] The TAT peptides, Rpt peptides (except Rpt6) and the peptide substrates were dissolved in anhydrous dimethylsulfoxide (DMSO; Sigma-Aldrich, St. Louis, Mo.) and such stock solutions were stored at −20° C. The total concentration of DMSO in final reaction mixtures never exceeded 3% (vol/vol). The Trp (tryptophan)-containing Rpt6 peptide was dissolved in ultrapure water and stored at −20° C., protected from light. The reaction was carried out in 96-well plates, in 100 μL of reaction mixture that consisted of 45 mM Tris/HCl, pH 8, 100 mM KCl, 1 mM EDTA (reaction buffer) and a fluorogenic peptide substrate, to which 200 ng (nearly […]) of proteasome were added. […] The proteasome was preincubated with a substrate for 10 min at room temperature, then 1 μL of DMSO or a desired concentration of a TAT peptide in 1 μL of DMSO were added. After mixing, the plate was transferred to a Fluoroskan Ascent plate reader (Thermo Fisher Scientific Inc., Waltham, Mass.) for 1 h (37° C.), with fluorescence readouts once per minute. To test the competition with Rpt derived peptides, the Rpt peptide (1 μM) was added before the TAT peptide to the reaction mixture. The reaction rates were calculated from a linear segment of kinetic curves constructed from measurements in 1-min intervals. Reaction rates were calculated using a linear fit performed with the Slope Analyser and Enzyme Kinetics applications launched within Origin Pro 2019 (OriginLab Corporation, Northampton, Mass.). […] The data are presented as mean±SD from at least three independent experiments.
Statistical Analysis. Experiments were performed at least in three independent replicates. The results are presented as a mean±SD. A two-tailed t-test was applied to compare the means. The comparisons were allowing for unequal variances with a Welch correction. Abundance of proteasome conformers was compared with the chi squared test and two-sample proportion test. A significance level was set at 0.05. Statistical analysis was performed using statistical procedures offered by OriginPro 2019 (OriginLabs, Northampton, Mass.). Reaction rates were calculated from a smoothed linear segment of kinetic traces using OriginPro 2019. Response curves (activity vs. compound concentration) were fitted with a nonlinear fitting application of OriginPro 2019. The AC50 and maximum activation fold was calculated based on the equations implemented to fit the response curves.

In the case of `N=C(N)NCCC[C@H](NC(=O)CN)C(=O)N[C@@H](CCCCN)C(=O)N[C@@H](CCCCN)C(=O)N[C@@H](CCCNC(=N)N)C(=O)N[C@@H](CCCNC(=N)N)C(=O)N[C@@H](CCC(N)=O)C(=O)N[C@@H](CCCNC(=N)N)C(=O)N[C@@H](CCCNC(=N)N)C(=O)N[C@@H](CCCNC(=N)N)C(=O)N1CCC[C@H]1C(=O)N[C@@H](CO)C(=O)O` [(1), reference compound], the “enhanced activation with Rpt tails” value ([1]; 1 μM Rpt peptide) is listed as “enhanced activation in the presence of one of Rpt tails, namely Rpt5 or Rpt6”, the “competition with Rpt tail peptides” value ([1]; 1 μM Rpt peptide added before the TAT peptide) is listed as “weakly negative score for the Rpt2 tail to the presumed major competitor Rpt3” and the “degradation by 20S proteasome” value (20S proteasome) is listed as “digested by 20S proteasome”. The “proteasome ChT-L activity in lysates from treated cells vs control lysates” value [2] was “lack of significant activation”.
In the case of `CC(C)C[C@H](NC(=O)[C@H](Cc1ccccc1)NC(=O)c1cnccn1)B(O)O` [Bortezomib], the “effect on ChT-L activity of cell lysates (in words)” value [3] was “almost complete abrogation of ChT-L activity”.
In the case of `CC(C)(NC(=O)C(CCC(N)=O)NC(=O)C(CCCNC(=N)N)NC(=O)C(CCCNC(=N)N)NC(=O)C(CCCCN)NC(=O)C(CCCCN)NC(=O)C(CCCNC(=N)N)NC(=O)CN)C(=O)NC(=O)C(C)(C)C(=O)NC(CCC(N)=O)C(=O)NC(CCCNC(=N)N)C(=O)NC(CCCNC(=N)N)C(=O)NC(CCCCN)C(=O)NC(CCCCN)C(=O)NC(CCCNC(=N)N)C(=O)NCC(=O)O` (stereo not shown) [Tat5-8, 9 Aib, GRKKRRQ-AibG-QRRKKRG], the AC50 ([4]; 20S proteasome AC50, Table 1, ChT-L activity, Suc-LLVY-MCA, purified human housekeeping 20S) was 183 nM and the “activation of ChT-L activity of 20S proteasome (in words)” value ([4]; in vitro, latent human 20S) was “surprisingly excellent activator slightly less potent than Tat1-8,9Aib”.
